We go through one compound from publication PMC9452769 (Molecular Plant Pathology, 2022).

The target of the assay is T1, OxyR (OxyR-His) (Xanthomonas campestris, UniProt Q8PCA2).
T1 sequence (Q8PCA2 1-313): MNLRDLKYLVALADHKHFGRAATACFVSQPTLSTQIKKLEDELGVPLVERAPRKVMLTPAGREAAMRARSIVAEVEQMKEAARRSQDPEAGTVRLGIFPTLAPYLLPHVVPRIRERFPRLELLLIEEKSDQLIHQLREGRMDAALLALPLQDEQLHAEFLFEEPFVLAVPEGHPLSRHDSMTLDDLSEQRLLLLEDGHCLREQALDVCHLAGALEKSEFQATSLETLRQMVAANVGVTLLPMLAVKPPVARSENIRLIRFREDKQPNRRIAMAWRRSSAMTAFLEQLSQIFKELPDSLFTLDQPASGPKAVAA
Nature of the assay: microscale thermophoresis. It counts as binding.

As a reminder, the Kd is the equilibrium constant for the complex coming apart. As to `C[S@@+]([O-])CCCCN=C=S` [sulforaphane], the Kd amounted to 325 ± 105 nM.
